Reference: patent publication US4150231A, “1-Nitro-9-dialkylaminoisoalkylaminoacridines or their salts” (priority 1976, dated 1979)
“Also recorded” adds a separate entry of the source.

Assays:
Crocker Sarcoma (Sa-180) = assay: Inhibition of growth of Crocker Sarcoma (Sa-180) in mice; type: in vivo; settings: 33 determinations in ten series, different doses
Method: The inhibition of growth of Crocker Sarcoma (Sa-180) in mice.
For these experiments mice, three months old and about 25 g in weight were used. Each of them was inoculated with a section of sarcoma (Sa-180 and then they were divided in groups: one of control -- 10 mice, and two to four groups of the "being under treatment"-mice (7 mice each).
The compound investigated in corresponding doses were administered intraperitoneally in appropriate doses, prior to which a maximum tolerance dose was determined.
As a criterion for evaluation of the anti-neoplastic activity of the compounds investigated, the percent difference of the mean weights of tumours isolated from control mice, and the "treated" mice was used, taking into consideration the toxic effects. As active compounds were those which have inhibited, by at least 40%, the growth of the tumours, in at least two tests without any dying of the animals (less than 2 mice), or any mean losses of the weight greater than 4 g.
The investigations in vivo of several compounds were carried out several times, e.g., for the preparation labeled code number C-829, that is for 1-nitro-9-(2-dimethylamino-1-methylethylamino)-acridine dihydrochloride. […] In doses of 0.05 to 0.2 mg/kg the percent of inhibition was 17 to 73%, correspondingly.

[1] = Acute toxicity i.v. in mice (LD50, MTD); type: in vivo; settings: mouse, in vivo, iv, on average
mice = assay: Acute toxicity i.v. in mice (LD50, MTD); type: in vivo
[2] = Acute toxicity i.v. in rats (LD50, MTD); type: in vivo; settings: rat, in vivo, iv, on average
rats [3] = assay: Acute toxicity i.v. in rats (LD50, MTD); type: in vivo
[4] = Acute toxicity by oral administration (LD50, MTD); type: in vivo; settings: in vivo, mice and rats
Method: (§1) On the other hand, similar doses as related to oral administration are about 100 mg/kg.
(§2) The MTD-values by oral administration are even lower i.e., by 53-66% than the sharp lethal dose.

mice and rats = assay: Acute toxicity by oral administration (LD50, MTD); type: in vivo
Method: as §1, §2

[5] = Acute toxicity, signs and comparison with other acridine derivatives; type: in vivo
Method: as §1, §2

circulatory system [6] = assay: Circulatory and electrocardiographic effects; type: in vivo
respiratory system = assay: Influence on the respiratory system; type: in vivo
Description: The influence exerted by the preparation on the respiratory system is of two-phases.

circulatory system [7] = assay: Circulatory action in atropinized animals; type: in vivo; settings: atropinized rabbits
[8] = tested on: smooth muscle in the small intestine and the urinary bladder; assay: Action on smooth muscle of small intestine and urinary bladder; type: in vivo; settings: 10 mg/kg, rabbit
[9] = tested on: muscular coat of the small intestine; assay: In vitro action on muscular coat of small intestine, guinea-pig; settings: 10^-5 to 5×10^-5, guinea-pig
[10] = tested on: muscular coat of the small intestine; assay: In vitro action on muscular coat of small intestine, rat; settings: 10^-5 to 5×10^-5, rat
central nervous system = type: in vivo
Description: The preparation C-829 exerted an effect on the principal functions of the central nervous system.

reproductory functions = assay: Influence on reproductory functions; type: in vivo
rabbits = assay: Extended three-month toxicity study in rabbits; type: in vivo; settings: doses 1/100 to 1/40 LD50
Method: (§3) The extended toxicity studies were carried out for a three-month period in rabbits and rats. Doses of from 1/100 to 1/40 LD50 were administered in the case of rabbits, and of from 1/150 to 1/50 LD50 in the case of rats. It should be noted that the highest doses were also the maximum tolerance doses during 12 weeks.

rats [11] = assay: Extended three-month toxicity study in rats; type: in vivo; settings: doses 1/150 to 1/50 LD50
Method: as §3

peripheral blood = assay: Extended toxicity: peripheral blood and clotting; type: in vivo, rabbits and rats
Method: as §3

lymphatic system = assay: Extended toxicity: lymphatic system; type: in vivo, rabbits and rats; settings: three-month study
Method: as §3

liver = tested on: liver; set-up: species or system rabbits and rats; settings: in vivo
Method: as §3
By prolonged exposition, the influence of the preparation C-829 on the functions of the parenchymateous organs (liver, kidneys) was investigated. […] Only the thymol turbidity test resulted as a positive one, using the highest dosage of the preparation. But it should be kept in mind, that this test is not too exact.

kidneys = tested on: kidneys; set-up: species or system rabbits and rats; settings: in vivo
Method: as §3

[12] = Local irritation by aqueous solution; type: in vivo

SMILES: CC(CN(C)C)Nc1c2ccccc2nc2cccc([N+](=O)[O-])c12.Cl.Cl (stereo not drawn) [Example C-829, 1-nitro-9-(2-dimethylamino-1-methylethylamino)-acridine dihydrochloride]
- dose dependence of inhibition of Sa-180 growth (Crocker Sarcoma (Sa-180)): dependent upon the dose
- LD50 [1]: 21 mg/kg
- maximum tolerance dose (MTD), lower than LD50 by (mice): ~20%
- LD50 [2]: 13 mg/kg
- maximum tolerance dose (MTD), lower than LD50 by (rats [3]): about 30%
- LD50 [4]: ~100 mg/kg
- MTD by oral administration, lower than the sharp lethal dose by (mice and rats): 53-66%
- period over which animals die ([5]; in vivo): up to 10 days
- relative toxicity among the derivatives of acridine ([5]; in vivo): relatively lower toxicity
- toxic signs at death ([5]; regardless of the way of administration, dihydrochloride): intensified symptoms of the alimentary canal; also recorded: A sharp intestinal obstruction of the paralytic type occurs
- ECG intervals: PQ and QRS sections (circulatory system [6]; higher doses, intravenously): prolonging the PQ section and in widening the QRS section
- blood pressure and conductivity disturbances (circulatory system [6]; higher doses, intravenously): intensified hypotension, induced some disturbances characteristic enough of the acridine compounds both in the atrio-ventricular and intraventricular conductivity
- electrocardiographic changes (circulatory system [6]; initially, intravenously, doses increasing to 5 mg/kg): initially was not accompanied by any electrocardiographic changes
- effect on blood pressure (circulatory system [6]; intravenously, doses increasing to 5 mg/kg, rabbits, cats): transient hypotension effect
- conductivity disturbance at lethal doses (circulatory system [6]; lethal doses): total auriculoventricular dissociation
- character of circulatory effect (circulatory system [6]; lower and moderate doses): transient character
- action on muscular coat of blood-vessels (circulatory system [6]; rabbit, in vivo): tonic action on the muscular coat of the blood-vessels
- respiratory effect, initial phase (respiratory system; at the appearance of hypotension): instinctive respiratory excitation
- respiratory effect, massive doses (respiratory system; massive doses): depressive centrally for respiratory action, leading terminally to an apnoea
- change of circulatory action by atropinization (circulatory system [7]): does not change the action of the preparation on the circulatory system
- action on smooth muscle [8]: spasmolytic
- action on muscular coat of the small intestine [9]: rather a contracting (enterospasmatic) one
- action on muscular coat of the small intestine [10]: rather a contracting (enterospasmatic) one
- interaction with soporific (hypnotic) drugs (central nervous system; 10 LD50 (so in the source)): clear depressive component value
- action in the presence of cardiazol and strychnine (central nervous system; in vivo): complex and non-characteristic
- influence on spontaneous motility (central nervous system; in vivo): devoid, indeed, of an influence on the spontaneous motility of animals
- effect on testicles (reproductory functions; 1/50 LD50, 14 days): some retrograde microscopical metaplasia within the germinal epithelium of spermatic tubules of the testicles, leading to a disorder in the spermatogenesis
- effect on females fructified and newborn animals per brood (reproductory functions; 1/50 LD50, 14 days prior to connexion): reduced the amount of fructified females, as well as diminished the number of newborn animals in broods
- effect on ovary (reproductory functions; 14 days): no observed pathological alteration in the ovary
- development of the foetus and newborn animals (reproductory functions; 14 days prior to connexion): no macroscopic disorders of development of the foetus and newborn animals
- maximum tolerance dose during 12 weeks (highest dose) (rabbits): 1/40
- maximum tolerance dose during 12 weeks (highest dose) (rats [11]): 1/50
- influence on the thrombocyte system (peripheral blood; preliminary investigations): did not show the influence of the preparation on the thrombocyte system
- picture of the peripheral blood (leukocytic, erythrocytic, hemoglobin levels) (peripheral blood; three-month study): did not change the picture of the peripheral blood
- blood clotting (coagulation) time (peripheral blood; three-month study, not correlated with dosage): prolonged the blood clotting (coagulation) time
- lymphatic system: proliferous centers and small lymphocytes (lymphatic system): The structure of the proliferous centers became imperceptible, and also the amount of small lymphocytes diminished
- lymphatic system: rete elements (lymphatic system): hypertrophy of rete elements
- alterations in the lymphatic system (lymphatic system; especially mesenteric lymph nodes): very discretely marked involutional alterations
- liver function (transaminase AlAt, AspAt, acidic and alkaline phosphatase in serum) (liver): It could not be determined, that it could influence the functions of the liver
- liver histology (liver): some weak (hardly perceptible) traits of the parenchymatous degeneration of glandular cells
- thymol turbidity test (liver): positive
- endogenous creatinine level in the serum (kidneys): remained unchanged
- glomerular filterability (kidneys): maintained within standard limits
- kidney histology (kidneys): some focal parenchymatous degeneration character in renal tubules
- urine: pathological components and specific weight (kidneys): neither induced any appearance of pathological components in urine, nor changed its specific weight
- local action of aqueous solution ([12]; 0.05-1% aqueous solution): locally irritating action
- local action at higher concentrations ([12]; higher concentrations, aqueous solution): narcotizing effect
- local irritation with phosphate buffer as solvent ([12]; phosphate buffer solution of Sorensen at pH 7): partially alleviated
